From PMC12392461, “Beyond Estrogenicity: A Comparative Assessment of Bisphenol A and Its Alternatives in In Vitro Assays Questions Safety of Replacements” (Environmental Science & Technology, 2025)
Like-named read-outs stand apart in the source and are kept apart here.

Tests used:
[1] = test system: Antioxidant response element; assay: MitoOxTox: oxidative stress response in AREc32; details: for EC10, linear / logEC10: Bioassay ARE, dosing range all; for EC10, linear: linear model fit; for logEC10: log-logistic model fit; for EC10: Arec32, read-out: EC10, linear transformed
From the text: (§1) All bioassay media components and the ERα-UAS-bla GripTite and PPARγ-UAS-bla cells were obtained from Thermo Fisher Scientific (Waltham, MA, USA). AREc32 reporter gene cells based on MCF7 were provided by C. Roland Wolf (Cancer Research UK); AhR CALUX cells (H4L7.5c2 derived from H4IIe) were provided by Michael Denison (UC Davis, USA); and SH-SY5Y cells were purchased from Sigma-Aldrich.
(§2) Cell culture conditions and bioassay protocols including response detection are provided in Text S2.1–2.4 and Table S3. − Cell viability was determined from cell confluency using an IncuCyte S3 Live-Cell Analysis System (Sartorius AG, Essen, Germany) before and after exposure, except for SH-SY5Y cells (live–dead staining with Nuclear Green LcS1 and propidium iodide, Abcam, UK). For metabolic activation experiments, cell viability was assessed using the ToxBLAzer DualScreen Kit (Thermo Fisher Scientific) to capture the remaining toxicity in ERα-UAS-bla GripTite after treatment with the aCYP catalyst (details in Text S2.4).
(§3) For ARE, the concentration that triggered an induction ratio of 1.5 (ECIR1.5) was used as the benchmark value, as detailed in Text S2.5. IC10 values also served as a threshold for data analysis in all assays; only concentrations below IC10 were considered when deriving EC10 or ECIR1.5. […]
(§4) S2: Cell culture and bioassays
(§5) S2.1: Cell Culturing Conditions
(§6) All suppliers and sources are given in detail in SI-Excel S3. The bioassay media for the different assays were prepared as follows: Assay medium for ER alpha-UAS-bla GripTite (ERα) and PPAR gamma-UAS-bla 293H (PPARγ) was prepared with 98% Opti-MEM, supplemented with 2% charcoal-stripped FBS, and 100 U/mL penicillin-streptomycin. MitoOxTox and AhR assay medium was comprised of 90% DMEM with GlutaMAX, supplemented with 10% FBS, and 100 U/mL penicillin-streptomycin. Neurotoxicity assay medium consisted of the neurobasal […]
(§7) (1 picture or pasted object on this page, not shown here) […]
(§8) medium, supplemented with 2% B-27 Supplement and 2 mM GlutaMAX Supplement. SH - SY5Y cells were differentiated with 10 µM all-trans retinoic acid prior to the assay.
(§9) S2.2: Cell Seeding and Incubation. For all bioassays, cell suspensions in the respective assay medium were dispensed into each well of 384-well plates using a MultiFlo Dispenser (Biotek, (now Agilent), Winooski, VT, U.S.). After seeding, the plates were incubated at 37° C and 5% CO₂ for […]. The final cell densities and plate types were as follows: Black poly-D-lysine coated 384-well plates (Product No. 354663, Corning Inc., NYC, U.S.) were used for PPARγ:
(§10) 6500 cells/well, ERα: 5000 cells/well. White 384-well plates with a clear bottom (Product No.
(§11) 781098, Greiner, Kremsmünster, Austria) were utilized for the MitoOxTox assay: 2650

[2] = test system: SH-SY5Y cells; details: for IC10, SH-S5Y5, NOI: cytotoxicity, NOI assay cells;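 as to Relative effect potency REPNOI: EC10 of BPA divided by EC10 of the test compound so values above 1 mean more potent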;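 as to Specificity ratio (SRbaseline) SRNOI: ratio of predicted baseline cytotoxicity IC10 to the neurite outgrowth inhibition EC10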
Experimental: as §2, with “S2.4). […]” for “S2.4).”
We measured the cytotoxicity of BPA and its alternatives in HEK293H (PPARγ), HEK293T (ERα), H4IIe (AhR CALUX), MCF7 (ARE/MMP), and differentiated SH-SY5Y cells (Table S6). […]
as §8
S2.2: Cell Seeding and Incubation. For all bioassays, cell suspensions in the respective assay medium were dispensed into each well of 384-well plates using a MultiFlo Dispenser (Biotek, (now Agilent), Winooski, VT, U.S.). After seeding, the plates were incubated at 37° C and 5% […]
NYC, U.S.) for AhR: 3250 cells/well. Black Collagen I coated plates were used (Product No.
S2.3: Chemical Dosing and Assay Analysis Procedures. The dosing procedure and high-throughput assay workflow have been described in detail before. 9 The dosing concentrations […]
Stock solutions were then either added directly to the respective cell culture medium or evaporated under nitrogen, followed by replenishment with fresh medium. The final solvent content in each well was kept below 1% for methanol, 0% for acetonitrile.
Dosing plates were prepared as 11 -step serial dilutions using a Hamilton Microlab Star robotic system (Hamilton, Bonaduz, Switzerland), and chemicals were dosed in duplicates by transferring 10 μL twice from the dosing plates to the cell plates . After quantifying cell confluency as described in S2. 4., the exposed cells were incubated at 37° C and 5% CO₂ for an additional 24 h. All chemicals were tested in all assays with at least three independent […]
S2.4: Cell Viability Measurement s and bioanalytical protocols . The confluency as a measure of cell viability was determined with an IncuCyte S3 Live -Cell Analysis System (Sartorius AG, Essen, Germany). With this method the confluency of cells in a microscopy image are normalized to control wells without cells and compared before and after 24 hours of exposure.
This method has been described previously 13. Cell viability of SH-SY5Y cells was measured […]
propidium iodide (PI, Abcam, Cambridge, U.K.).14 Nuclear Green LCS1 is a membrane-permeable dye that stains the nuclei of all cells, whereas PI only enters cells with compromised membrane integrity (non-viable cells). After staining, live cells show green nuclei without red fluorescence, while dead cells display both green and red nuclear fluorescence due to PI […]
intercalation. […]

[3] = test system: SH-SY5Y cells; assay: cells; details: for EC10: Homo sapiens, SH-SY5Y; for Specificity ratio (SRbaseline) SRNOI: against baseline cytotoxicity; for Relative effect potency REPNOI: relative to BPA; for EC10, linear / logEC10: NOI bioassay, dosing range all; for EC10, linear: linear model; for logEC10: log-logistic model
From the text: as §1, §2, §3, §4, §5, §6, §7, §8, §9, §10, §11

[4] = NOI bioassay cytotoxicity, dosing range all, linear model
[5] = NOI bioassay cytotoxicity, dosing range all, log-logistic model
[6] = read-out: EC10, linear transformed
[7] = NOI bioassay cytotoxicity, dosing range all

Structure (SMILES)	EC10, linear [1]	logEC10 [1]	IC10, linear [2, 4]	logIC10 [2, 5]	EC10 ([3]; read-out: EC10, NOI) [M]	EC10 ([3]; read-out: EC10, NOI (M)) [M]	EC10 ([3]; read-out: EC10, linear) [M]	EC10 [3, 6] [M]	EC10 ([3]; read-out: logEC10) [M]	Specificity ratio (SRbaseline) SRNOI [3]	Relative effect potency REPNOI [3]	EC10 [1] [µM]	logIC10 ([2]; human, 24 h)	EC10, linear [3]	logEC10 [3]	oxidative stress response (ARE activation) [1]	IC10, linear transformed [2, 7]	Toxic ratio (TR) TRNOI ([2]; against baseline cytotoxicity)	IC10, SH-S5Y5, NOI [2] [µM]	further results
CC1(C)C(O)C(C)(C)C1O (racemic) [r-TMCD, 2,2,4,4-Tetramethyl-1,3-cyclobutanediol (racemate)]	no effect	no effect	no cytotoxicity	no cytotoxicity	0.00599	0.00599	0.00494	0.00599	0.00603	0.17	0.00848	–	–	–	–	–	–	–	–	–
O=S(=O)(c1ccc(O)cc1)c1ccccc1O [2,4-BPS, 2,4'-Dihydroxydiphenyl sulfone]	no effect	no effect	–	–	–	–	–	0.000871	–	–	–	88700	-3.31	no effect	no effect	–	–	–	–	Toxic ratio (TR) TRNOI ([2]; human, 24 h): 1.29
CC(C)(c1ccc(OCC2CO2)cc1)c1ccc(OCC2CO2)cc1 (centres unmarked) [BADGE, Bisphenol A diglycidyl ether]	no effect	no effect	5.39E-05	-4.24	3.81e-05	3.81e-05	3.69e-05	4.5e-05	3.8e-05	0.48	1.33	–	–	–	–	lacked any oxidative stress response	5.73E-05	0.32	57.3	Specificity ratio (SRcytotoxicity) SRNOI ([3]; against experimental cytotoxicity): 1.50
CC(C)CC(C)(c1ccc(O)cc1)c1ccc(O)cc1 [BP-MIBK, 4,4'-(1,3-Dimethylbutylidene)diphenol]	no effect	no effect	–	–	–	–	–	5.05e-05	–	–	–	–	-4.10	no effect	no effect	–	–	–	–	IC10, linear [2]: no cytotoxicity
CC(C)(c1ccc(O)cc1)c1ccc(O)cc1 [BPA, 4,4'-(Propane-2,2-diyl)diphenol, reference compound]	no effect	masked by cytotoxicity	no cytotoxicity	-3.62	5.08e-05	5.08e-05	7.16e-05	7.63e-05	5.13e-05	0.40	1.00	1510	–	–	–	did not induce ARE	2.37E-04	0.0846	237	Specificity ratio (SRcytotoxicity) SRNOI ([3]; human, 24 h): 4.68; SR (neurite outgrowth inhibition) ([3]; specificity ratio): < 10
Oc1ccc(C(c2ccc(O)cc2)(C(F)(F)F)C(F)(F)F)cc1 [BPAF, 4,4'-(1,1,1,3,3,3-Hexafluoropropane-2,2-diyl)diphenol]	no effect	no effect	7.35E-05	-4.18	1.62e-05	1.62e-05	1.93e-05	2.61e-05	1.62e-05	–	–	–	–	–	–	–	6.64E-05	–	66.4	–
